pKd: −log10 of the molar value. “And” between values parts separate entries of the source, which are not always exact repeats. Equal entries are not always repeated.
What was measured:
Type in all cases: binding
[1] = biological target: T1, CD16a158V (Homo sapiens, UniProt P08637, F176V); experiment: Microscale Thermophoresis; conditions: read-out: MST-CD16a158V KD
Experimental: Target proteins (poly-histidine tagged, 600 nM) were fluorescently labeled combination with an equal volume of dye (200 nM, His-Tag labeling kit RED-tris-NTA NanoTemper: MO-L008) PBST. The mixture rotated in the dark for 45 min before being spun down at 12000 rpm for 15 min to remove uncomplexed material. The fluorescence of the removed supernatant was adjusted to for a test concentration of 40-80 nM (2× the final measured). Test ligands were prepared across a 12-point dilution series in a 96-well PCR plate at a volume of 20 uL at 2× the concentration desired for testing (0.2% BSA in PBST). The dilution series was then combined with an equal volume of the labeled target at 2× the concentration desired for testing. Capillaries were added to the wells of the combined target/ligand complex and measured by MST. Measurements were taken using a Nanotemper Monolith NT.115, and the data was analyzed using NanoTemper MO.Control software.

[2] = system: CD16a158V; experiment: NHS-Ester ELISA Assay; conditions: NHS-Ester ligands 250 μM; 10 nM biotinylated CD16a protein
Experimental: (§1) Pretreat ELISA plates (Costar 3922) using 200 μl […] (BSA, Heat Shock, Fraction V-American Bio AB01088-00100) in PBS for 2 hours at 25° C. with moderate shaking. BSA was removed and plates were washed. NHS-Ester ligands were diluted in PBS to 250 μM then added (100 μl/well) and incubated for 1 hour at 37° C. […] Plates are removed from the incubator and washed. CD16a/Streptavidin.HRP mixture was added to the plates (100 μl/well) and incubated for 1 hour at 25° C. with gentle shaking. Wash plates. Substrate (Super Signal ELISA Pico Chemiluminescent Substrate-Thermo 37069) was added (100 μl/well) and plates were incubated for 5 minutes at 25° C. with gentle shaking. Luminescence was then measured on the Biotek Synergy H1 microplate reader.

[3] = biological target: T2, CD16a158F (Homo sapiens, UniProt P08637); experiment: NHS-Ester ELISA Assay; parameters: purchased Acro Biosystems CDA-H82E8; conditions: NHS-Ester ligands 250 μM; 10 nM biotinylated CD16a protein
Experimental: as §1

[4] = biological target: T2, CD16a158F; experiment: Biotin ELISA, interaction with various receptors (Example 55); conditions: three replicate values per compound
Experimental: (§2) Coat ELISA plates (Costar 3922) using Neutravidin (Thermo 31000) at 5 μg/ml (100 μl/well) for 1 hour at 37° C. Plates were washed 4 times with PBST (PBS, 0.05% Tween 20-200 μl, 1 minute/wash) then blocked using 200 μl 5% bovine serum albumin (BSA, Heat Shock, Fraction V-American Bio AB01088-00100) in PBST for 2 hours at 25° C. with moderate shaking. BSA was removed and plates were washed. Biotinylated ligands diluted in PBSTB (PBST+0.1% BSA) were then added (100 μl/well) and incubated for 1 hour at 25° C. with gentle shaking. Ligands were removed and plates were washed. Any remaining unoccupied neutravidin binding sites were blocked by adding 100 μM Biotin (Fisher BP232-1) (100 μl/well) and incubated for 1 hour at 25° C. with gentle shaking. Plates were then washed. […] Protein was removed and plates were washed. Streptavidin-HRP (Invitrogen 434323) diluted 1:5000 in PBSTB was added (100 μl/well) and incubated for 1 hour at 25° C. with gentle shaking. Wash plates. Substrate (Super Signal ELISA Pico Chemiluminescent Substrate-Thermo 37069) was added (100 μl/well) and plates were incubated for 5 minutes at 25° C. with gentle shaking. Luminescence was then measured on the Biotek Synergy H1 microplate reader.
(§3) Using similar methods as Examples 47 or 53, interactions with a number of receptors were measured. In some embodiments, “stock” is antibody only, and “control” is an antibody that went through the same procedure except using DMSO only as opposed to a compound. When contacted with targeting moieties such as antibodies in the Examples, compounds, e.g., I-95, I-96, etc. can react through their reactive groups

[5] = biological target: T1, CD16a158V; experiment: as above; conditions: three replicate values per compound
Experimental: as §2, §3

[6] = biological target: T3, CD32a H167 (Homo sapiens, UniProt P12318); experiment: as above; conditions: three replicate values per compound
T3 sequence (P12318 36-218 limits assumed): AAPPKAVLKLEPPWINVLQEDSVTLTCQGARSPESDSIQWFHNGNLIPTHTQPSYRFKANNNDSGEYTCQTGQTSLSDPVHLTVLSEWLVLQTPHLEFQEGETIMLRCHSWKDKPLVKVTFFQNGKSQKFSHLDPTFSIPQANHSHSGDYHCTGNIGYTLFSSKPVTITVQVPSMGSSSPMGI
Experimental: as §2, §3

[7] = system: CD32a-R167; experiment: as above; conditions: three replicate values per compound
Experimental: as §2, §3

[8] = biological target: T4, CD32b (Homo sapiens, UniProt P31994); experiment: as above; conditions: three replicate values per compound
T4 sequence (P31994 43-310): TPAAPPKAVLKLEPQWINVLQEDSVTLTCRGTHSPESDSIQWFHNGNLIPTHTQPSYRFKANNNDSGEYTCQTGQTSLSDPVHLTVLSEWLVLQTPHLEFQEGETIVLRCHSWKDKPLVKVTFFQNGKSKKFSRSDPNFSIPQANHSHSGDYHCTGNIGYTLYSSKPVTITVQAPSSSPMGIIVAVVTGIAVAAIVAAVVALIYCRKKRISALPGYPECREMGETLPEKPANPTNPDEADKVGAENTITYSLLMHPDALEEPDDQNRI
Experimental: as §2, §3

[9] = biological target: CD3ed (Homo sapiens, UniProt P04234+P07766); experiment: as above; conditions: three replicate values per compound
Experimental: as §2, §3

[10] = biological target: CD64 (Homo sapiens, UniProt P12314); experiment: as above; conditions: three replicate values per compound
Experimental: as §2, §3

[11] = Biotin ELISA, No Protein (Example 55); conditions: three replicate values per compound
Experimental: as §2, §3

[12] = biological target: T1, CD16a158V; experiment: Biotinylated Ligand ELISA Assay; conditions: Biotinylated CD16a protein at 10 nM
Experimental: as §2

[13] = biological target: T2, CD16a158F; experiment: Biotinylated Ligand ELISA Assay; parameters: purchased Acro Biosystems CDA-H82E8; conditions: Biotinylated CD16a protein at 10 nM
Experimental: as §2

Chain of CD3ed (P07766 23-126 limits assumed): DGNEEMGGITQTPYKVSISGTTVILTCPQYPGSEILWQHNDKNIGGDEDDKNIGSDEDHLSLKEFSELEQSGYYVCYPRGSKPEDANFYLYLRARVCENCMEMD
Chain of CD3ed (P04234 22-105 limits assumed): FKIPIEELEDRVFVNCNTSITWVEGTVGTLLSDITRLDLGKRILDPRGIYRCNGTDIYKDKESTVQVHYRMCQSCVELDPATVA
T1 sequence (P08637 17-208 F176V): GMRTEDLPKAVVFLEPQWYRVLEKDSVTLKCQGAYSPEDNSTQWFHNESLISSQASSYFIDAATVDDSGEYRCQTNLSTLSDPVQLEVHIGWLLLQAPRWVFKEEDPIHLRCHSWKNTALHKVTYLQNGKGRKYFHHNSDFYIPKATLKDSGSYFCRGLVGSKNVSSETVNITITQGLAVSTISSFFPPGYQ
T2 sequence (P08637 17-208 limits assumed): as the sequence (P08637 17-208 F176V) above, with V160F counted along it
Chain of CD64 (P12314 16-374): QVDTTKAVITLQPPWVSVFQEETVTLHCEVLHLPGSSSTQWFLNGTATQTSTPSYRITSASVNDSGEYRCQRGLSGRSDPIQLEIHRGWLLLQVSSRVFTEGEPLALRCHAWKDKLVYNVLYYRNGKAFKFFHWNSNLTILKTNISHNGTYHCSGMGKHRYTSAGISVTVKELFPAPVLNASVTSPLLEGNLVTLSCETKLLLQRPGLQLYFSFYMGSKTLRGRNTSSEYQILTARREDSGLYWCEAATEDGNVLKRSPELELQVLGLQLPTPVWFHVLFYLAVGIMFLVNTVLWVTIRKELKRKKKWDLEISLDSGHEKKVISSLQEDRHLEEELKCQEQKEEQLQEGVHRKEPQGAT

| SMILES | pKd [1] | NHS ester ELISA-CD16a158V Binding (RLU) [2] | NHS ester ELISA-CD16a158F Binding (RLU) [3] | other results |
| --- | --- | --- | --- | --- |
| COc1cccc(N2CC(C(=O)Nc3ccc(-c4cn(CCOCCOCCOCCOCCOCCOCCOCCOCCNC(=O)CCCC[C@@H]5SC[C@@H]6NC(=O)N[C@@H]65)nn4)cc3)CC2=O)c1 (stereo partly drawn) [Compound I-34] | 6.30 to 7.00 | – | – | – |
| O=C(CCOCCOCCOCCOCCOCCOCCOCCOCCOCCOCCOCCOCCn1cc(-c2ccc(NC(=O)N3CCC4(CC3)NC(=O)N(Cc3ccccc3)C4=O)cc2)nn1)ON1C(=O)CCC1=O [Compound I-2] | – | C (a relative luminescence value (RLU) of 1,000-10,000) | B (a relative luminescence value (RLU) of 10,000-100,000) | – |
| COc1ccc(OC)c(N2CC(C(=O)Nc3ccc(CC4N=NC(COCCOCCOCCOCCOCCOCCOCCOCCNC(=O)CCCC[C@@H]5SC[C@@H]6NC(=O)N[C@@H]65)=N4)cc3)CC2=O)c1 (stereo partly drawn) [Compound I-41] | 6.00 to 6.30 | – | – | – |
| COc1ccc(OC)c(N2CC(C(=O)Nc3ccc(Cn4cnc(CCOCCOCCOCCOCCOCCOCCOCCOCCNC(=O)CCCC[C@@H]5SC[C@@H]6NC(=O)N[C@@H]65)n4)cc3)CC2=O)c1 (stereo partly drawn) [Compound I-38] | 6.30 to 7.00 | – | – | – |
| COc1ccccc1N1CC(C(=O)Nc2ccc(-c3cn(CCOCCOCCOCCOCCOCCOCCOCCOCCNC(=O)CCCC[C@@H]4SC[C@@H]5NC(=O)N[C@@H]54)nn3)cc2)CC1=O (stereo partly drawn) [Compound I-35] | 6.30 to 7.00 | – | – | – |
| O=C(CCOCCOCCOCCOCCOCCOCCOCCOCCOCCOCCOCCOCCNC(=O)c1cnc(N2CCC3(CC2)NC(=O)N(Cc2ccccc2)C3=O)nc1)ON1C(=O)CCC1=O [Compound I-8] | – | B (a relative luminescence value (RLU) of 10,000-100,000) | C (a relative luminescence value (RLU) of 1,000-10,000) | – |
| COc1ccc(OC)c(N2C(=O)NC3(CCN(C(=O)Nc4cccc(-c5cn(CCOCCOCCOCCOCCOCCOCCOCCOCCOCCOCCOCCOCCC(=O)ON6C(=O)CCC6=O)nn5)c4)CC3)C2=O)c1 [Compound I-1] | – | C (a relative luminescence value (RLU) of 1,000-10,000) | B (a relative luminescence value (RLU) of 10,000-100,000) | – |
| O=C(CCOCCOCCOCCOCCOCCOCCOCCOCCOCCOCCOCCOCCn1cc(-c2cccc(-c3cnc(N4CCC5(CC4)NC(=O)N(Cc4ccccc4)C5=O)nc3)c2)nn1)ON1C(=O)CCC1=O [Compound I-6] | – | B (a relative luminescence value (RLU) of 10,000-100,000) | B (a relative luminescence value (RLU) of 10,000-100,000) | – |
| O=C(CCCC[C@@H]1SC[C@@H]2NC(=O)N[C@@H]21)NCCOCCOCCOCCOCCOCCOCCOCCOCCNC(=O)c1cnc(N2CCC3(CC2)NC(=O)N(c2ccccc2)C3=O)s1 [Compound I-13, 5-[(3aS,4S,6aR)-2-oxo-hexahydro-1H-thieno[3,4-d]imidazol-4-yl]-N-{26-[(2-{2,4-dioxo-3-phenyl-1,3,8-triazaspiro[4.5]decan-8-yl}-1,3-thiazol-5-yl)formamido]-3,6,9,12,15,18,21,24-octaoxahexacosan-1-yl}pentanamide] | – | – | – | Biotin ELISA Results CD16a-158F [4]: 10817 and 15276 and 9605; Biotin ELISA Results CD16a-158V [5]: 4673 and 4920 and 4565; Biotin ELISA Results CD32a-H167 [6]: 15516 and 14898 and 8681; Biotin ELISA Results CD32a-R167 [7]: 8032 and 6483 and 10638; Biotin ELISA Results CD32b [8]: 7721 and 7105 and 9481; Biotin ELISA Results CD3ed [9]: 4252 and 15476 and 72836*; Biotin ELISA Results CD64 [10]: 45845 and 36876 and 49943; Biotin ELISA Results No Protein [11]: 6804 and 19233 and 14386 |
| O=C(CCOCCOCCOCCOCCOCCOCCOCCOCCOCCOCCOCCOCCn1cc(-c2cccc(NC(=O)N3CCC4(CC3)NC(=O)N(c3ccccc3)C4=O)c2)nn1)ON1C(=O)CCC1=O [Compound I-9] | – | B (a relative luminescence value (RLU) of 10,000-100,000) | B (a relative luminescence value (RLU) of 10,000-100,000) | – |
| O=C(CCCC[C@@H]1SC[C@@H]2NC(=O)N[C@@H]21)NCCOCCOCCOCCOCCOCCOCCOCCOCCNC(=O)c1ccc(S(=O)(=O)N2CCC3(CC2)NC(=O)N(c2ccccc2)C3=O)cc1 [Compound I-22] | – | – | – | Biotinylated Ligand ELISA-CD16a158V Binding (RLU) [12]: B (a relative luminescence value (RLU) of 10,000-100,000); Biotinylated Ligand ELISA-CD16a158F Binding (RLU) [13]: B (a relative luminescence value (RLU) of 10,000-100,000) |
| CCOc1ccc(N2CC(C(=O)N3CCC(C(=O)NCCOCCOCCOCCOCCOCCOCCOCCOCCNC(=O)CCCC[C@@H]4SC[C@@H]5NC(=O)N[C@@H]54)CC3)CC2=O)cc1 (stereo partly drawn) [Compound I-37] | 6.00 to 6.30 | – | – | – |
| COc1ccc(OC)c(N2CC(C(=O)Nc3ccc(-c4cn(CCOCCOCCOCCOCCOCCOCCOCCOCCC(=O)ON5C(=O)CCC5=O)nn4)cc3)CC2=O)c1 (stereo not drawn) [Compound I-26] | – | C (a relative luminescence value (RLU) of 1,000-10,000) | C (a relative luminescence value (RLU) of 1,000-10,000) | – |
| COc1ccc(OC)c(N2CC(C(=O)Nc3ccc(-c4cn(CCOCCOCCOCCOCCOCCOCCOCCOCCOCCOCCOCCOCCC(=O)ON5C(=O)CCC5=O)nn4)cc3)CC2=O)c1 (stereo not drawn) [Compound I-25] | – | C (a relative luminescence value (RLU) of 1,000-10,000) | C (a relative luminescence value (RLU) of 1,000-10,000) | – |
| COc1ccc(N2CC(C(=O)Nc3ccc(-c4cn(CCOCCOCCOCCOCCOCCOCCOCCOCCNC(=O)CCCC[C@@H]5SC[C@@H]6NC(=O)N[C@@H]65)nn4)cc3)CC2=O)cc1 (stereo partly drawn) [Compound I-33] | 6.30 to 7.00 | – | – | – |
| COc1ccc(OC)c(N2CC(C(=O)Nc3cccc(-c4cn(CCOCCOCCOCCOCCOCCOCCOCCOCCNC(=O)CCCC[C@@H]5SC[C@@H]6NC(=O)N[C@@H]65)nn4)c3)CC2=O)c1 (stereo partly drawn) [Compound I-40] | 6.30 to 7.00 | – | – | – |
| O=C(CCOCCOCCOCCOCCOCCOCCOCCOCCOCCOCCOCCOCCn1cc(-c2cnc(N3CCC4(CC3)NC(=O)N(Cc3ccccc3)C4=O)nc2)nn1)ON1C(=O)CCC1=O [Compound I-7] | – | B (a relative luminescence value (RLU) of 10,000-100,000) | C (a relative luminescence value (RLU) of 1,000-10,000) | – |
